Results as given in patent US12234299B2, “Peptides for inducing bacteriocin synthesis and methods to identify and/or select and/or optimize the same” (SYNGULON S.A., priority 2018, dated 2025).

Legend:
ScuR = assay: Mobility shift assay (EMSA) of promoter probes with purified ScuR and synthetic peptide; type: binding, Streptococcus salivarius; details: FIG. 4A
Experimental: All double-stranded DNA fragments (30 or 40 bp) were obtained from annealing of single-stranded Cy3-labelled (at 5′ end) and unlabeled oligonucleotides. Typically, a gel shift reaction (20 μl) was performed in a binding buffer (20 mM Tris-HCl pH 8.0, 150 mM NaCl, 1 mM EDTA, 1 mM DTT, 10% glycerol, 1 mg ml-1 BSA) and contained 150 ng labelled probe and […] StrepTag proteins. When necessary, […] of ComS peptides (unless otherwise stated) are added. The reaction is incubated at 37° C. for 10 min prior to loading of the samples on a native TBE 5% gel. The gel is next subjected to 80 V for approximately 1 h in TBE buffer. DNA complexes were detected by fluorescence on the Ettan DIGE Imager with bandpass excitation filters (nm): 540/25 (Cy3) or 635/30 (Cy5) and bandpass emission filters: 595/25 (Cy3) or 680/30 (Cy5) (GE Healthcare, Waukesha, WI).
The PCR-amplified scuR-StrepTag and gene sarF-StrepTag were cloned into the pBAD-comR-ST vector (see supplemental information). The ComR-StrepTag, ScuR-StrepTag and SarF-StrepTag recombinant proteins were overproduced in E. coli and purified as previously described (Fontaine et al., 2013) in standard native conditions on Strep-Tactin agarose beads (IBA).

[1] = tested on: sptA promoter (PsptA), ScuR/SarF system; assay: Luciferase (luxAB) promoter activity of PsptA with exogenous synthetic peptides; type: cell-based, Streptococcus salivarius HSISS4
Experimental: (§1) Overnight precultures were diluted at a final OD600 of 0.05. A volume of 300 μl of culture samples was incubated in the wells of a sterile covered white microplate with a transparent bottom (Greiner, Alphen a/d Rijn, The Netherlands) for 75 min at 37° C. and then supplemented with synthetic peptides (1 μM, except if otherwise stated) or DMSO, and xylose where required. Growth (OD600) and luciferase (Lux) activity (expressed in relative light units) was monitored at 10 min intervals during 24 h in a multi-wells plate reader (Hidex Sense, Hidex, Turku, Finland) as previously described (Fontaine et al., 2013).

[2] = tested on: comX promoter (PcomX) and ComX-dependent promoters; assay: Luciferase (luxAB) activity of PcomX and ComX-dependent late competence promoters; type: cell-based, Streptococcus salivarius HSISS4; details: 1 μM; FIG. 9
Experimental: as §1

[3] = tested on: S. salivarius HSISS4 derivatives; assay: Competence development (natural transformation frequency); type: cell-based, Streptococcus salivarius
Experimental: To induce competence, overnight CDMG precultures were diluted at a final OD600 of 0.05 in 300 μl (10 ml concerning the randomized peptide screen) of fresh CDMG and incubated 75 min at 37° C. Then, we added the pheromone sComS as well as DNA (overlapping PCRs or plasmids) and let the cells recover for 3 h at 37° C. before plating on M17G agar supplemented with antibiotics where required. Null-mutants were constructed by exchanging (double homologous recombination) the coding sequences (CDS) of target genes (sequence between start and stop codons) for either chloramphenicol or erythromycin resistance cassette. If stated, mutants were cleaned for the lox site-flanked resistance cassette, as previously described (Fontaine et al. Mol Microbiol 2010; 87:1113-1132). In case of deletion of multiple CDSs, the region between the start codon of the first CDS and the stop codon of the last CDS was deleted. Integration of the antibiotic resistance cassette at the right location was subsequently checked by PCR. The promoters of sptA genes was fused to the luxAB reporter genes and inserted with a chloramphenicol resistance cassette at the permissive tRNA threonine locus (HSISS4_r00061) by double homologous recombination. In case of ΔscuR and ΔsarF in-frame deletion, we used the two-step selection/counter-selection strategy previously described (Mignolet et al. Cell Rep 2018, 22:1627-1638). We transformed the wild-type strain with an overlapping PCR product composed of 4 fragments: (I) the upstream region of scuR or sarF genes, (II) the downstream region of scuR or sarF genes, (III) a cassette that includes the erythromycin resistance gene (erm) and a gene encoding the orotate transporter oroP, and finally (IV) the downstream region of scuR or sarF genes. We selected a first event of double recombination on medium supplemented with erythromycin. Next, we selected an intramolecular recombination between region (I) and (IV) that excises the erm-oroP cassette by growing cells on M17G supplemented with the toxic 5-fluoro-orotic acid (5-FOA) compound. In […] of oroP, 5-FOA is not able to cross the membrane and penetrate the cytoplasm where it is deleteriously incorporated in the nucleotide metabolic pathway (Overkamp et al., 2013). At final, we engineered an in-frame deletion mutant of scuR or sarF in which the first seven codons were fused to the last six codons without any cassette scar (see below for detailed cloning method).

comS promoter (PcomS) = assay: Luciferase (luxAB) promoter activity of PcomS with synthetic peptides; type: cell-based, Streptococcus salivarius HSISS4
Experimental: as §1

[4] = tested on: S. salivarius producer strains; indicator strain Lactococcus lactis IL1403; assay: Bacteriocin detection assay (spot-on lawn, multilayer); type: cell-based, Streptococcus salivarius; details: FIG. 5B
Experimental: The spot-on lawn (multilayer) detection method was performed as followed: 10 μl of overnight cultures of producer strains were diluted in fresh M17G medium and grown to reach mid-log phase (OD600=˜0.5). In parallel, we casted plates with a bottom feeding layer (M17G 1.5% agar) supplemented with a synthetic peptide where required. Next, we mixed 100 μl of an overnight culture of Lactococcus lactis IL1403 (indicator strain) in pre-warmed soft M17G medium (0.3% agar) and casted it as a top layer. Finally, we incubated mid-log phase cultures for 30 minutes with the corresponding synthetic peptides and spotted 3 μl of the producer strains on the top layer. Plates were incubated overnight before analysis of the inhibition zones surrounding the producer colonies.

slvX promoter (PslvX) = assay: Luciferase (luxAB) promoter activity of PslvX with synthetic peptides; type: cell-based, Streptococcus salivarius HSISS4
Experimental: as §1

[5] = WT background, dose response FIG. 3D
[6] = ΔscuR strain (SarF only), FIG. 3D

sBI7: synthetic peptide: last 8 amino acids of the clone BI7 peptide MIAILPFWLILG (sBI7)
ScuR·sBI7 affinity for PcomS and PslvX in comparison to sComS-bound ComR (ScuR): appears weaker with a less stable complex | peptide concentration from which ScuR shifts the PsptA probe (ScuR; ScuR 4 μM, peptide 2:2 dilutions from 20 μM): ≥ 0.08 nM | ScuR affinity for PcomS probe (ScuR; with sBI7): weakest affinity | ScuR affinity for PsptA probe (ScuR; with sBI7): strongest one | amplitude of PsptA response compared with PslvX and PcomS ([1]; WT background, FIG. 3D): highest amplitude | peptide concentration to which PsptA is responsive [1, 5]: less than 1 nM | activity of all promoters (PsptA, PslvX, PcomS) in ΔsarF compared to WT ([1]; ΔsarF strain, FIG. 3D): slightly up compared to the WT | SarF-mediated PsptA response ([1]; ΔscuR strain, FIG. 3D): able to induce the SarF-mediated PsptA response | induction of sptA, comS and slvX promoters in ΔscuR-sarF double mutant ([1]; ΔscuR-sarF, FIG. 3F): utterly erased | activation of comX and late competence genes under direct ComX control [2]: cannot activate | support of natural transformation ([3]; Table 6): ineffective to support natural transformation | Competence development (transformation frequency) ([3]; Wild-type strain, ratio of transformants (chloramphenicol-resistant CFU) to total CFU count per 0.1 ug of linear DNA): ND (ND: not detected (<1.0E−08)) | Competence development (transformation frequency) ([3]; ΔsarF strain, ratio of transformants to total CFU count per 0.1 ug of linear DNA): ND (ND: not detected (<1.0E−08)) | Competence development (transformation frequency) ([3]; ΔscuR strain, ratio of transformants to total CFU count per 0.1 ug of linear DNA): ND (ND: not detected (<1.0E−08)) | amplitude of PcomS response compared with PsptA and PslvX (comS promoter (PcomS); WT background, FIG. 3D): lowest | peptide concentration to which PcomS is responsive (comS promoter (PcomS); [5]): less than 1 nM | PcomS activity upon sBI7 induction in ΔscuR (comS promoter (PcomS); [6]): no activity in ΔscuR | halo of inhibition around producer strain ([4]; WT strain, sBI7 concentration ranging from 1 nM to 1 μM, indicator L. lactis): small halo of inhibition | halo of inhibition in mutant producer strains ([4]; single ΔscuR, double ΔscuR-sarF or Δslv5 strains): eradicated | peptide concentration to which PslvX is responsive (slvX promoter (PslvX); [5]): less than 1 nM | PslvX activity upon sBI7 induction in ΔscuR (slvX promoter (PslvX); [6]): no activity in ΔscuR
